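Protocol summary: plate cells (96-well), add compound at 5 concentrations, incubate 48 h, interpolate endpoints linearly. The concentration for 50% growth inhibition is given as GI50. TGI denotes the concentration required for complete inhibition of growth.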
Key:
Assay in all cases: NCI tumour cell line growth inhibition, 48 h
[1] = system: NCI/ADR-RES ovarian
[2] = system: MALME-3M melanoma
[3] = system: OVCAR-3 ovarian
[4] = system: BT-549 breast
[5] = system: HOP-62 NSCLC
[6] = system: SR leukemia
[7] = system: OVCAR-4 ovarian
[8] = system: K-562 leukemia
[9] = system: MDA-MB-435
[10] = system: NCI-H460 lung

Structure (SMILES)	GI50 [1]	TGI [1]	GI50 [2]	TGI [2]	GI50 [3]	TGI [3]	GI50 [4]	TGI [4]	GI50 [5]	TGI [5]	GI50 [6]	TGI [6]	GI50 [7]	TGI [7]	GI50 [8]	TGI [8]	GI50 [9]	TGI [9]	GI50 [10]	TGI [10]
COc1ccc(C2c3ccc4ccccc4c3Oc3ncn(CCCn4ccnc4)c(=N)c32)cc1OC (stereo not drawn)	3.96 µM	17.4 µM	2.12 µM	3.89 µM	3.44 µM	11 µM	3.41 µM	13.5 µM	5.03 µM	18.4 µM	1.57 µM	4.15 µM	9.65 µM	26.4 µM	2.07 µM	4.54 µM	1.99 µM	4.06 µM	3.65 µM	13.2 µM
Oc1ccc(N=Nc2ccc(Br)cc2)c(O)c1	3.07 µM	9.29 µM	3.61 µM	20.7 µM	3.2 µM	14.7 µM	2.67 µM	8.3 µM	3.9 µM	19.5 µM	0.337 µM	2.54 µM	6.31 µM	> 100 µM	1.31 µM	3.75 µM	1.25 µM	3.65 µM	3.29 µM	21.5 µM
Oc1nc(N2CCOCC2)sc1/C=C1\C=Nc2ccccc21	> 100 µM	> 100 µM	> 100 µM	> 100 µM	> 100 µM	> 100 µM	> 100 µM	> 100 µM	> 100 µM	> 100 µM	82 µM	> 100 µM	> 100 µM	> 100 µM	> 100 µM	> 100 µM	> 100 µM	> 100 µM	> 100 µM	> 100 µM
CCCCCCCCCCCCCCCCn1cc[n+](C)c1	1.95 µM	18.4 µM	0.357 µM	1.51 µM	0.286 µM	1.02 µM	0.444 µM	1.61 µM	0.443 µM	1.73 µM	0.0742 µM	0.787 µM	0.372 µM	17.8 µM	0.131 µM	1.13 µM	0.358 µM	1.49 µM	0.486 µM	1.83 µM
CC(C)[C@@]12C[C@@H](OC(=O)C3CO3)[C@@](C)(O1)[C@@H]1CC[C@@H](C)[C@H]1[C@@H]2OC(=O)/C=C/c1ccccc1 (stereo partly drawn)	10.8 µM	37.4 µM	13 µM	27.4 µM	15.8 µM	30 µM	11.3 µM	27.8 µM	21.2 µM	> 100 µM	29.8 µM	> 100 µM	13.2 µM	26.6 µM	33.2 µM	> 100 µM	18.4 µM	38.3 µM	17.2 µM	34.2 µM
O=c1[nH]c(-c2ccc(Cl)c(Cl)c2)cn1-c1ccc(Cl)cc1	27.7 µM	> 100 µM	17 µM	39.7 µM	27.7 µM	59 µM	37.7 µM	> 100 µM	16.3 µM	31.9 µM	4.64 µM	16.2 µM	19.7 µM	35.3 µM	21.5 µM	46.9 µM	60 µM	> 100 µM	22.3 µM	52.2 µM
COc1ccc(Nc2ncc(I)c(NCCCNC(=O)C3CCC3)n2)cc1	12 µM	> 100 µM	7.39 µM	> 100 µM	7.83 µM	33.8 µM	2.52 µM	7.92 µM	1.64 µM	21.8 µM	4.91 µM	> 100 µM	9.31 µM	64.2 µM	8.99 µM	> 100 µM	17.1 µM	> 100 µM	5.19 µM	36.8 µM
COc1cc2c(/C=C3\C(=O)N(C)c4ccccc43)c[nH]c2cc1C	0.65 µM	23.3 µM	1 µM	> 53.9 µM	3.27 µM	9.78 µM	7.53 µM	71.9 µM	2.23 µM	39.3 µM	2.07 µM	14.2 µM	> 100 µM	> 100 µM	1.68 µM	> 100 µM	1.62 µM	12.1 µM	–	> 37.1 µM
COc1cc(CSc2nc3ccc(Cl)cc3c(=O)n2Cc2ccccc2)cc(OC)c1OC	2.77 µM	> 100 µM	5.81 µM	39.1 µM	3.2 µM	11.6 µM	6.19 µM	90.6 µM	2.88 µM	18.2 µM	0.59 µM	27.6 µM	4.99 µM	> 100 µM	1.19 µM	> 100 µM	0.406 µM	11.6 µM	3.33 µM	> 100 µM
Cc1ccc(/C(=N/NS(=O)(=O)c2cc(C)c(Cl)cc2Cl)Sc2cc(Cl)c(C)cc2S(N)(=O)=O)cc1	> 100 µM	> 100 µM	63.6 µM	> 100 µM	59 µM	> 100 µM	83.5 µM	> 100 µM	> 100 µM	> 100 µM	41 µM	> 100 µM	> 100 µM	> 100 µM	70.1 µM	> 100 µM	> 100 µM	> 100 µM	> 100 µM	> 100 µM
NC(=O)c1cn(C2CC(O)C(CO)O2)c2ncnc(N)c12 (stereo not drawn)	2 µM	24.2 µM	0.763 µM	–	4.09 µM	19.6 µM	0.203 µM	2.87 µM	5.36 µM	49.7 µM	6.6 µM	> 100 µM	6.26 µM	> 100 µM	4.21 µM	> 100 µM	2.42 µM	> 100 µM	7.69 µM	> 100 µM
CC1(C)C(=O)/C=C\C(=O)C(C)(C)C2=CC=C(O2)C(C)(C)C(=O)C(Br)C(Br)C(=O)C(C)(C)C2=CC=C1O2 (stereo not drawn)	–	90.2 µM	–	> 100 µM	–	68.9 µM	–	76.5 µM	–	> 100 µM	–	5.62 µM	–	> 100 µM	–	45.4 µM	–	> 100 µM	–	> 100 µM
O=S(O)O.O=S(O)O.[Co].[NH2-].[NH2-].[NH2-].[NH2-]	> 100 µM	> 100 µM	> 100 µM	> 100 µM	> 100 µM	> 100 µM	> 100 µM	> 100 µM	> 100 µM	> 100 µM	> 100 µM	> 100 µM	> 100 µM	> 100 µM	> 100 µM	> 100 µM	> 100 µM	> 100 µM	> 100 µM	> 100 µM
O=C1CN=C(c2ccc[nH]2)c2cc(Cl)ccc2N1	57.4 µM	> 100 µM	> 100 µM	> 100 µM	> 100 µM	> 100 µM	53.3 µM	> 100 µM	> 100 µM	> 100 µM	> 100 µM	> 100 µM	> 100 µM	> 100 µM	54 µM	> 100 µM	> 100 µM	> 100 µM	4.38 µM	> 100 µM
CN1CCc2ccccc2C1Cc1ccccc1NC(=O)c1sc2ccccc2c1Cl (stereo not drawn)	–	> 100 µM	–	> 100 µM	–	> 100 µM	–	> 100 µM	–	> 100 µM	–	> 100 µM	–	> 100 µM	–	> 100 µM	–	> 100 µM	–	> 100 µM
OCc1ccc(-c2nc(-c3ccc4c(c3)OCO4)c(-c3ccccn3)[nH]2)cc1	10.4 µM	> 25 µM	> 25 µM	> 25 µM	> 25 µM	> 25 µM	> 25 µM	> 25 µM	> 25 µM	> 25 µM	> 25 µM	> 25 µM	> 25 µM	> 25 µM	> 25 µM	> 25 µM	> 25 µM	> 25 µM	> 20.9 µM	> 25 µM
CC(C)(C)c1cc(C[P+](c2ccccc2)(c2ccccc2)c2ccccc2)cc(C(C)(C)C)c1O	9.12 µM	33.8 µM	0.291 µM	0.947 µM	0.359 µM	10.2 µM	0.33 µM	0.898 µM	0.66 µM	3.94 µM	0.403 µM	2.5 µM	0.337 µM	9.16 µM	0.341 µM	4.64 µM	0.289 µM	1.2 µM	0.413 µM	2.59 µM
CCOC(=O)c1c(NN2CCN(CC(F)(F)F)CC2)oc(/C=C2\C=Nc3ncccc32)c1O	19.3 µM	57.8 µM	13 µM	29.4 µM	4.06 µM	19.4 µM	1.59 µM	5.68 µM	5.03 µM	21.8 µM	0.689 µM	3.81 µM	6.17 µM	26.4 µM	2.14 µM	> 100 µM	3.36 µM	16.8 µM	3.49 µM	20.2 µM
Nc1nc(Sc2ccc([N+](=O)[O-])c3nonc23)c2ncn(C3OC(CO)C(O)C3O)c2n1 (stereo not drawn)	0.47 µM	> 73.2 µM	9.8 µM	> 42.1 µM	2.17 µM	24.6 µM	1.6 µM	18.6 µM	0.531 µM	> 100 µM	0.113 µM	> 41.2 µM	1.89 µM	17.8 µM	0.279 µM	> 90.5 µM	1.67 µM	> 57.1 µM	0.311 µM	15.5 µM
